Measured values from patent US20260115253A1, “VISCOUS COMPOSITION FOR TREATING ISCHEMIA” (National Cheng Kung University, priority 2017, published 2026).

System: diabetic mice with lower limb ischemia
Test: Diabetic lower limb ischemia mouse model, blood flow by laser Doppler flowmetry
Assay type: in vivo
Settings: 3.125 ng/g of VEGF in composition DIV
Experimental: C57BL/6 male mice were sourced from the National Cheng Kung University (NCKU) Laboratory Animal Center or BioLASCO Taiwan Co., Ltd. They were housed in the animal facility of the NCKU Institute of Biotechnology for at least one week in order for them to adapt to the environment before experiments were performed.
Since low blood sugar levels in mice would interfere with the results, mice with blood sugar levels within the range of 400 mg/dl to 550 mg/dl were used for the experiments, and minute amount of insulin might be applied to mice to avoid life-threatening high blood sugar levels. In order to avoid the possibility of self-regenerative neovascularization, the femoral artery and its peripheral blood vessels in the lower limbs of the mice were severed. The model minimized the possibility of blood vessel regeneration, which allowed a more accurate assessment of the angiogenic ability of testing drugs. […]
At day 0, 1, 2, 3, 4, 5, 6, 7, 14, 21 and 28 post-surgery, the apparent appearance and blood flow of the lower limb in the mice were evaluated using the score system shown in Table 1 and laser Doppler flowmetry, respectively. ROI was calculated as the ratio of the blood flow signal of the left lower limb to that of the untreated right lower limb post-surgery, and the ratio in percentage was normalized based on the blood flow signal taken before the operation.

Substance: VEGF
- Blood flow compared with the control group: significantly increased the blood flow at day 14 and then on post surgery
